This is an account of results in PubChem BioAssay AID1996.

In brackets after ≈: the same amount, converted by molar mass.

The conditions of this data set: buffer; pH 7.4; 200.0 µM.
Turning to `CCOC(=O)c1c(C)[nH]c(C)c1C=O`, the kinetic solubility is more than 0.0293 mg/mL. With `Cc1cccc2c1N(CCOc1ccccc1)C(=O)C2=O` the figure was 0.0034 mg/mL (≈ 12.1 µM). With `Cc1ccc(CC2CC(=O)N(c3ccc(C)cc3)C2=O)cc1` (stereo not drawn) the figure was 0.0078 mg/mL (≈ 26.6 µM).

Turning to `O=[N+]([O-])c1ccc(CN2CC=C(c3ccccc3)CC2)cc1`, the solubility (kinetic) was 0.0068 mg/mL (≈ 23.1 µM). With `Cc1ccc(S(=O)(=O)N2CCN(CCc3ccncc3)CC2)cc1` the figure was more than 0.0518 mg/mL; with `COC(=O)/C(=N\OCc1ccc(C#N)cc1)c1c(C)nn(C)c1C`, more than 0.049 mg/mL; with `OCCCNCc1ccc(N(c2ccccc2)c2ccccc2)cc1`, 0.039 mg/mL (≈ 117 µM).

With `CN(CC(=O)Nc1ccc(OC(F)F)cc1)S(=O)(=O)/C=C/c1ccccc1`, the kinetic solubility was determined as 0.0054 mg/mL (≈ 13.6 µM). For `CCCC(=O)N1CCN(c2nc3ccc(Cl)cc3s2)CC1`, the solubility (kinetic) is 0.0463 mg/mL (≈ 143 µM).

`Cc1ccc(S(=O)(=O)c2nc(-c3cccs3)oc2N2CCC(C(N)=O)CC2)cc1` showed a kinetic solubility of more than 0.0647 mg/mL. With `COc1ccc(C)cc1NC(=O)CCCN1C(=O)CN(C)C1=O` the figure was more than 0.0479 mg/mL; with `Cc1csc(CN(C)C(=O)C2CCC(=O)N(CCN(C)C)C2)n1` (stereo not drawn), 0.0329 mg/mL (≈ 97.2 µM); with `O=C(O)CCN=CC1=C(O)CC(c2ccccc2)CC1=O` (stereo not drawn), more than 0.0431 mg/mL. `COc1ccc(N2CCN(C(=O)COC(=O)c3cccc(OC)c3O)CC2)cc1` gave a kinetic solubility of 0.0072 mg/mL (≈ 18 µM). With `COc1cc(/C=C2\SC(N)=NC2=O)ccc1O` the figure was 0.0345 mg/mL (≈ 138 µM); with `COc1ccccc1-c1nc(C#N)c(N2CC(C)CC(C)C2)o1` (stereo not drawn), 0.0015 mg/mL (≈ 4.82 µM); with `O=C(NC(=S)Nc1cccc2cnccc12)c1ccccc1`, 0.0012 mg/mL (≈ 3.9 µM). As to `CCS(=O)(=O)c1ccc(O)c(NC(=O)c2ccc(S(=O)(=O)N3CCCCCC3)cc2)c1`, the solubility (kinetic) was determined as 0.0116 mg/mL (≈ 24.9 µM). Then `CC(=O)Nc1ccc(S(=O)(=O)N[C@@H](C)C(=O)OCC(=O)c2ccc(C)cc2)cc1`, with 0.0377 mg/mL (≈ 90.1 µM). For `CCc1cccc2c1NC(=O)C2(O)N1CCCC(C)C1` (stereo not drawn), the kinetic solubility turned out to be 0.0385 mg/mL (≈ 140 µM).

`COc1ccc(C)cc1NC1=NC(C)(C)CS1` showed a kinetic solubility of 0.0361 mg/mL (≈ 144 µM). With `COc1ccc(NC(=O)c2nn(C)cc2[N+](=O)[O-])cc1`, the kinetic solubility was more than 0.0414 mg/mL.

`CCOC(=O)c1cnc(SC)nc1N1CCCC1` gave a kinetic solubility of more than 0.0401 mg/mL. With `CCOC(=O)c1sc(S(C)=O)c2c1CCc1conc1-2` (stereo not drawn) the figure was more than 0.0467 mg/mL. With `Cc1cc(C)nc(NC(=O)c2ccc(Cl)cc2Cl)n1` the figure was 0.042 mg/mL (≈ 142 µM); with `CC1CN(c2nc(Nc3ccccc3)nc(N)c2[N+](=O)[O-])CC(C)O1` (stereo not drawn), 0.0481 mg/mL (≈ 140 µM); with `O=C1NCCN1CCNS(=O)(=O)c1ccccc1[N+](=O)[O-]`, more than 0.0471 mg/mL.

For the molecule `N#Cc1cccc(NS(=O)(=O)c2ccccc2Cl)c1`, the solubility (kinetic) was more than 0.0439 mg/mL. With `CC(C)N(Cc1ccccc1)C(=O)COC(=O)c1cc[n+]([O-])cc1` the figure was more than 0.0493 mg/mL; with `O=C(COc1ccccc1[N+](=O)[O-])Nc1ccc2oc(=O)ccc2c1`, 0.0005 mg/mL (≈ 1.47 µM). On to `Cc1ccc(CONC(=O)c2ccc(C)cc2)cc1`, for which the solubility (kinetic) is 0.0202 mg/mL (≈ 79.1 µM). Molecule `CN1CCCN(C(=O)COc2ccc(Br)cc2)CC1` came in with a solubility (kinetic) of 0.0447 mg/mL (≈ 137 µM). With `CN(CC(=O)Nc1c(Cl)cccc1Cl)C(=O)Cc1ccsc1` the figure was more than 0.0536 mg/mL; with `Cc1cc(C)cc(C(=O)NCC(=O)N2CCC(C(N)=O)CC2)c1`, more than 0.0476 mg/mL; with `NC(=O)c1cnn(-c2ccc3ccccc3c2)c1N`, more than 0.0378 mg/mL. With `Cc1ccc(NC(=O)CCc2nc3ccccc3[nH]2)cc1C` the figure was 0.0003 mg/mL (≈ 1.02 µM). Then `CC1(C)Cc2cccc(C(=O)Nc3ccncc3)c2O1`, with 0.0348 mg/mL (≈ 130 µM); and `CCCNC(=O)c1cccc(Br)c1`, with more than 0.0363 mg/mL. `Clc1ccc(-c2nsc(N3CCOCC3)n2)c(Cl)c1` registered a kinetic solubility of 0.004 mg/mL (≈ 12.6 µM). Then `CCOc1ccc(C2(C)CC(=O)N(C)C2=O)cc1` (stereo not drawn), with 0.0114 mg/mL (≈ 46.1 µM). `Cc1oc(C(C)(C)C)cc1C(=O)NCc1ccc2c(c1)OCO2` registered a solubility (kinetic) of less than 0.0007 mg/mL. For `COc1cccc(Nc2cc(C)c3ccccc3n2)c1`, the solubility (kinetic) turned out to be 0.0087 mg/mL (≈ 32.9 µM). `CC(C)c1ccc(NC(=O)Cn2c(=O)oc3ccccc32)cc1` gave a kinetic solubility of 0.0021 mg/mL (≈ 6.77 µM). `Cc1cc(C(=O)COC(=O)C(C)NC(N)=O)c(C)n1Cc1ccco1` (stereo not drawn): the kinetic solubility worked out at 0.0457 mg/mL (≈ 132 µM). On to `C=CC(=O)NC1CC2CCC1(C)C2(C)C` (stereo not drawn), for which the kinetic solubility was more than 0.0311 mg/mL. The molecule `S=C(Nc1ccccc1)N(Cc1ccccc1)Cc1ccncc1` returned a kinetic solubility of 0.0392 mg/mL (≈ 118 µM). Then `Cc1nn(CC(=O)NC2CCS(=O)(=O)C2)c(C)c1[N+](=O)[O-]` (stereo not drawn), with more than 0.0474 mg/mL; and `Cc1ccc(CN2CC(C(=O)Nc3cccc(C)n3)CC2=O)cc1` (stereo not drawn), with more than 0.0485 mg/mL. As for `O=C(CN1CCOCC1)Nc1nc2ccc(Cl)cc2s1`, the solubility (kinetic) turned out to be 0.0458 mg/mL (≈ 147 µM). `O=C1/C(=C/c2ccncc2)N=C2CCCCCN12` had a solubility (kinetic) of 0.0339 mg/mL (≈ 140 µM). With `Cc1cc2sc(NC(=O)c3ccco3)nc2cc1Cl` the figure was 0.0006 mg/mL (≈ 2.05 µM).

For the molecule `CC[N+](CC)(CC#CCO)CC#Cc1ccccc1.[Br-]`, the kinetic solubility is 0.0442 mg/mL. Then `O=C1CCN(C(=S)NCc2ccccc2)CC1`, with more than 0.0373 mg/mL. Then `O=C(COC(=O)Cc1c[nH]c2ccccc12)Nc1ccccc1C(F)(F)F`, with more than 0.0565 mg/mL. As to `OC(C#CCN1CCCCC1)(c1ccccc1)c1ccccc1`, the solubility (kinetic) worked out at 0.013 mg/mL (≈ 42.6 µM). With `CCOc1ccc2cc(S(=O)(=O)N3CCCCC3)ccc2c1` the figure was less than 0.0007 mg/mL; with `COc1ccc(NC(=O)c2cc(-c3ccco3)on2)cc1`, 0.0008 mg/mL (≈ 2.81 µM); with `CCN1CCN(c2ccc(NC(=O)c3cccc(S(=O)(=O)N4CCCC4)c3)cc2)CC1`, 0.0632 mg/mL (≈ 143 µM). With `COc1ccc(-c2nsc(SCC(=O)NCC3CCCO3)n2)cc1` (stereo not drawn) the figure was more than 0.0548 mg/mL.

Consider `COc1ccc(CCC(=O)NC(C)c2ccccc2)cc1OC` (stereo not drawn), for which the solubility (kinetic) is more than 0.047 mg/mL. Then `Fc1ccc2nc(N3CCOCC3)sc2c1`, with more than 0.0357 mg/mL; and `Cc1cccc(NC(=O)COC(=O)CC2CCCC2)c1C`, with more than 0.0434 mg/mL; and `COc1ccc(NC2CCCN(C(=O)c3c(C)noc3C)C2)cc1` (stereo not drawn), with more than 0.0494 mg/mL. With `CS(=O)(=O)N1Cc2ccccc2CC1C(=O)OCC(=O)NCc1ccccc1` (stereo not drawn) the figure was more than 0.0604 mg/mL; with `O=Cc1ccc(C(=O)OCC(=O)Nc2ccc(F)cc2F)cc1`, 0.0037 mg/mL (≈ 11.6 µM). Then `N#Cc1ccc(C(=O)NC(=S)NC2CCCCC2)cc1`, with 0.0219 mg/mL (≈ 76.2 µM); and `COc1ccc(-c2cc(-c3ccccc3)c(C#N)c(SCC(=O)O)n2)cc1`, with more than 0.0565 mg/mL; and `CCOC(=O)c1c(C)n(C)c2cc([N+](=O)[O-])c(O)c([N+](=O)[O-])c12`, with 0.0449 mg/mL (≈ 139 µM).

`O=C(Nc1ccc2c(c1)CCC2)Nc1ccccc1F` showed a solubility (kinetic) of 0.0016 mg/mL (≈ 5.92 µM). With `O=c1c2ccccc2nc(Cc2ccccc2)n1-c1ccccc1O`, the kinetic solubility is more than 0.0493 mg/mL. Then `COc1ccccc1NCCC(=O)OCC(=O)Nc1ccccc1Cl`, with more than 0.0544 mg/mL; and `O=C(O)CCCC(=O)Nc1nncs1`, with more than 0.0323 mg/mL.

In the case of `O=[N+]([O-])c1ccc(N2CCOCC2)cc1N1CCCCC1`, the kinetic solubility was more than 0.0437 mg/mL. With `Cn1ccc(=S)c2ccccc21` the figure was 0.0252 mg/mL (≈ 144 µM); with `O=C(CSc1n[nH]c(=O)n1C1CC1)Nc1ccccc1`, more than 0.0436 mg/mL.

For the molecule `CNc1nc(-c2ccc3c(c2)CCN3C(=O)CC(C)(C)C)c(C)s1`, the kinetic solubility worked out at 0.0175 mg/mL (≈ 50.9 µM). In turn, `CCOc1cccc(C(=O)Nc2cccc(NC(=O)c3ccco3)c2)c1` displayed a kinetic solubility of 0.0039 mg/mL (≈ 11.1 µM). With `CNc1nc2c(c(=O)[nH]c(=O)n2C)n1CCCc1ccccc1` the figure was more than 0.047 mg/mL; with `Cc1cccc(N2CN=C3SCC(=O)N3C2)c1`, more than 0.0371 mg/mL; with `CCN(CC)c1ccc(N2C(=O)/C(=C/c3ccccn3)SC2=S)cc1`, less than 0.0003 mg/mL. `Cn1c(=O)c2c(nc(NC3CCCC3)n2C)n(C)c1=O` yielded a kinetic solubility of more than 0.0416 mg/mL. With `Cc1ccc(NC(=O)CN2CCOCC2)cc1S(=O)(=O)N1CCCCC1` the figure was more than 0.0572 mg/mL; with `O=C1c2ccccc2CN1CCNC(=S)NC1CCCCC1`, more than 0.0476 mg/mL; with `CCNC(=S)Nc1cccc(S(=O)(=O)NC2=NCCC2)c1`, 0.0379 mg/mL (≈ 116 µM). With `Cc1nc(N)ncc1-c1ccc2c(c1)OCO2` the figure was 0.0108 mg/mL (≈ 47.1 µM); with `O=C(CCCc1c[nH]c2ccccc12)Nc1ncccc1O`, 0.0359 mg/mL (≈ 122 µM). Then `Cc1cc(OCC(O)CN2CCCC2)ccc1C(C)C.Cl` (stereo not drawn), with 0.0391 mg/mL; and `Cc1ccc2oc(C(=O)Nc3cc(C)on3)c(C)c2c1`, with 0.0012 mg/mL (≈ 4.44 µM). `CCC(=NCc1ccco1)c1c(O)n(-c2ccccc2C)c(=O)[nH]c1=O` showed a kinetic solubility of more than 0.053 mg/mL. In the case of `Cc1cc(SCc2ccccc2Cl)nc(=O)[nH]1`, the kinetic solubility was found to be 0.03 mg/mL (≈ 112 µM).

`CC(=O)NNC(=O)c1[nH]c2ccc(Br)cc2c1-c1ccccc1` registered a kinetic solubility of more than 0.0558 mg/mL.

`Cc1ccn2c(=O)c(C(=O)O)cnc2c1`: the solubility (kinetic) was more than 0.0306 mg/mL.

Molecule `CCc1ccccc1NC(=O)NCc1cccnc1` registered a kinetic solubility of more than 0.0383 mg/mL. As for `O=C(CCNC(=O)c1ccc([N+](=O)[O-])cc1)NCc1ccco1`, the kinetic solubility is more than 0.0476 mg/mL. With `O=[N+]([O-])c1ccc(N2CCN(CC3CCCCC3)CC2)cc1` the figure was 0.0021 mg/mL (≈ 6.92 µM); with `COc1ccc(CCNC(=O)COC(=O)c2cc(=O)[nH]c3ccccc23)cc1`, 0.0089 mg/mL (≈ 23.4 µM); with `S=C(NCCc1ccccc1)Nc1ccccc1`, 0.0315 mg/mL (≈ 123 µM). Turning to `CCN(CC)CC(=O)Nc1ccc(C)cc1C(=O)c1ccccc1`, the solubility (kinetic) was more than 0.0487 mg/mL. The molecule `CC(OC(=O)CCCc1nc2ccccc2s1)C(=O)NC(N)=O` (stereo not drawn) displayed a solubility (kinetic) of more than 0.0503 mg/mL. In the case of `C=C(C)c1cccc(C(C)(C)NC(=O)NCc2ccncc2)c1`, the kinetic solubility is more than 0.0464 mg/mL. Then `CC(OC(=O)c1ccc(NC(N)=O)cc1)C(=O)Nc1ccc2c(c1)OCCO2` (stereo not drawn), with more than 0.0578 mg/mL; and `CN(c1cccc(NC(=O)c2cccc([N+](=O)[O-])c2)c1)S(C)(=O)=O`, with more than 0.0524 mg/mL; and `COc1ccc(C(=O)NCCNc2nc3c(C)cccc3cc2C#N)cc1`, with 0.0004 mg/mL (≈ 1.11 µM).
